Measured values as given in PubChem BioAssay AID1996.
Converted amounts (≈) assume the structure as drawn.

conditions: buffer; pH 7.4; 200.0 µM

First: CC1(C(=O)O)CCC(C(=O)Nc2ccc(F)cc2)C1(C)C (configuration not stated)
Second: COc1ccc(NC(=O)C2CCCN(C(=O)Nc3ccc(F)cc3)C2)cc1OC (configuration not stated)
The solubility kinetic of the first is higher: over 44 µg/mL for the first, 13.2 µg/mL (≈ 32.9 µM) for the second.

Going from `COc1cccc(NC(=O)COC(=O)c2ccc3ccccc3n2)c1` to `Cc1cc(C)nc(/N=C(\N)Nc2cccc(OCc3ccccc3)c2)n1`, the solubility kinetic rises from 43.4 µg/mL (≈ 129 µM) to over 52.1 µg/mL.

Going from `CCc1nc2cc3sc(CC)nc3cc2s1` to `COCc1nc2ccccc2n1Cc1ccccc1C`, the solubility kinetic rises from 0.6 µg/mL (≈ 2.42 µM) to over 40 µg/mL.

`COC(=O)c1cnc(SCC(=O)c2ccccc2)n1C` and `Cn1cnnc1SCC(=O)NNC(=O)c1ccc([N+](=O)[O-])cc1` cannot be ordered by solubility kinetic: over 43.6 µg/mL for the first, over 50.4 µg/mL for the second.

Going from `O=C1C2C3C=CC(CC3)C2C(=O)N1c1ccccc1[N+](=O)[O-]` (configuration not stated) to `O=C(/C=C/c1ccccc1[N+](=O)[O-])N1CCOCC1`, the solubility kinetic rises from 14.5 µg/mL (≈ 48.6 µM) to over 39.3 µg/mL.

`Cc1ccc(S(=O)(=O)N2CCC(C(=O)NCCN3CCOCC3)CC2)cc1C` and `COc1ccc(OC)c(-c2cc(C(=O)N3CCOCC3)no2)c1` cannot be ordered by solubility kinetic: 58.4 µg/mL (≈ 143 µM) for the first, over 47.7 µg/mL for the second.

`CCCOC(=O)CC1C(=O)NCCN1C(=O)OC(C)(C)C` (configuration not stated) and `CCOC(=O)CN1C(=O)SC(Nc2ccc(C)cc2)C1=O` (configuration not stated) cannot be ordered by solubility kinetic: over 45.1 µg/mL for the first, over 46.3 µg/mL for the second.

First: COc1ccccc1CNC(=S)Nc1ccc(F)cc1
Second: COc1ccccc1CNCCc1ccc(F)cc1.O=C(O)C(=O)O
The solubility kinetic of the first is lower: 12 µg/mL (≈ 41.3 µM) for the first, over 52.4 µg/mL for the second.

Going from `Cc1ccc(C(=O)C(=O)c2ccc(C)c(N)c2)cc1N` to `CC(=O)c1c(C)[nH]c(C(=O)NNC(=O)c2ccc(C)cc2)c1C`, the solubility kinetic rises from 35 µg/mL (≈ 130 µM) to over 47 µg/mL.

First: Cc1ccc(NC(=O)c2ccccc2F)c(NC(=O)c2ccccc2F)c1
Second: O=C(Nc1ccccc1C(=O)Nc1ccccc1)c1cccs1
The solubility kinetic of the first is 6.4-fold higher: 6.4 µg/mL (≈ 17.5 µM) for the first, 1 µg/mL (≈ 3.1 µM) for the second.

First: CCOC(=O)c1c(C)[nH]c(C(=O)COC(=O)CCNS(=O)(=O)c2ccc(NC(C)=O)cc2)c1C
Second: COc1ccc(NS(=O)(=O)c2ccc(C)cc2)c([N+](=O)[O-])c1
The solubility kinetic of the first is 2.3-fold lower: 19.2 µg/mL (≈ 38.9 µM) for the first, 44.1 µg/mL (≈ 137 µM) for the second.

First: Oc1ccc(NCc2ccc(OCc3ccccc3)cc2)cc1
Second: C=CCOc1ccc(CN(C)CC(O)COc2cccc3ccccc23)cc1 (configuration not stated)
The solubility kinetic of the first is 2-fold lower: 9.7 µg/mL (≈ 31.8 µM) for the first, 19.5 µg/mL (≈ 51.7 µM) for the second.

Compared with `O=C(NCCNc1ccc([N+](=O)[O-])cc1)c1cccs1`, `Cc1ccnc(NC(=O)c2ccc([N+](=O)[O-])s2)c1` is 1.7-fold lower in solubility kinetic: 6.7 µg/mL (≈ 23 µM) for the first, 4 µg/mL (≈ 15.2 µM) for the second.

First: O=C(NC(=S)Nc1ccc2ncccc2c1)c1ccccc1
Second: COc1cc2cc(NC(C)=O)cc(NCc3ccccc3)c2cc1OC
The solubility kinetic of the first is 3-fold lower: 1.4 µg/mL (≈ 4.55 µM) for the first, 4.2 µg/mL (≈ 12 µM) for the second.

`CCC(C)[C@H](NC(=O)Nc1ccccc1F)C(=O)O` (some centres not stated) and `C=CCOc1ccccc1NC(=O)CN1C(=O)CNC1=O` cannot be ordered by solubility kinetic: over 40.2 µg/mL for the first, over 43.4 µg/mL for the second.

Going from `CCOc1cc(NC(=O)CCl)c(OCC)cc1NC(=O)CCl` to `COC(=O)c1cccc(NC(=O)Nc2ccc(Cl)cc2Cl)c1`, the solubility kinetic falls from 6.8 µg/mL (≈ 19.5 µM) to under 0.4 µg/mL.

Going from `Cc1ccccc1NC(=O)CN1CCc2ccccc2C1` to `O=C(Nc1ccc(Br)cc1)N1CCc2ccccc2C1`, the solubility kinetic falls from 24.8 µg/mL (≈ 88.5 µM) to 1.1 µg/mL (≈ 3.32 µM) (23-fold).

`Cc1cccc(Oc2nc3c(c(=O)n(C)c(=O)n3C)n2C)c1` and `Cc1cccc(Nc2cc(=O)n(C)c(=O)[nH]2)c1` cannot be ordered by solubility kinetic: over 45 µg/mL for the first, over 34.7 µg/mL for the second.

Going from `NS(=O)(=O)c1ccc(CNC(=O)c2cc(=O)c3ccccc3o2)cc1` to `COc1ccc(NC(=S)NCc2ccccc2)c(OC)c1`, the solubility kinetic rises from 1.7 µg/mL (≈ 4.74 µM) to 38.8 µg/mL (≈ 128 µM) (23-fold).

`CC(C)CCNC(=O)C1CC(=O)N(CCc2ccccc2)C1` (configuration not stated) and `Cc1nc2c(c(=O)c3ccccc3n2C)c(=O)n1-c1ccccc1` cannot be ordered by solubility kinetic: over 45.4 µg/mL for the first, 46.2 µg/mL (≈ 146 µM) for the second.

First: N#C/C(=C\c1ccc(F)c(Br)c1)C(=O)NC1CC1
Second: Cc1cccc(OCC(=O)NC2CCCCCC2)c1C
The solubility kinetic of the first is higher: 6.1 µg/mL (≈ 19.7 µM) for the first, under 0.6 µg/mL for the second.

`COc1ccc(CN2CCN(Cc3ccc(C)cc3)C(CCO)C2)cc1OC` (configuration not stated) and `O=C(CN1C(=O)NC2(CCCC2)C1=O)NCc1ccc(Cl)cc1` cannot be ordered by solubility kinetic: 51.8 µg/mL (≈ 135 µM) for the first, over 50.4 µg/mL for the second.

Compared with `O=C(Nc1ccc2c(c1)OCCO2)c1ccc(Cl)cc1`, `CN(CCC#N)C(=S)Nc1ccc(F)cc1` is 16-fold higher in solubility kinetic: 2.1 µg/mL (≈ 7.25 µM) for the first, 32.8 µg/mL (≈ 138 µM) for the second.

Molecule `COc1cc(NC(=O)N[C@@H](CCSC)C(=O)O)cc(OC)c1` has a solubility kinetic of over 49.3 µg/mL.
